{"source": "patent US11793782B2", "about": "“Therapeutic agents for neurodegenerative diseases” (priority 2017, dated 2023)", "key": {"Npc1−/− mice": {"system": "Npc1−/− mice", "assay": "Coat condition of Npc1−/− mice", "format": "in vivo, mouse", "settings": "0.1 g/kg in chow from weaning, nine weeks of age", "excerpt": "Separate groups of Npc1^-/- and Npc1^+/+ mice were left untreated, as controls."}, "Npc1−/− and Npc1+/+ mice": {"system": "Npc1−/− and Npc1+/+ mice", "assay": "Motor function analysis (Open Field Activity Monitor), NPC mouse study", "format": "in vivo", "settings": "0.1 g/kg from weaning, nine weeks of age", "procedure": "Separate groups of Npc1^−/− and Npc1^+/+ mice were left untreated, as controls. Motor function analysis was performed on mice at eight and nine weeks of age using an Open Field Activity Monitor according to manufacturer's instructions (Linton Instruments, Amlogger Software). Each mouse was placed in a plastic cage with bedding and analysed for five minutes. Rears were counted manually. Motor function parameters measured were: • 1. Centre Rearing: mice rearing on hind legs unsupported; • 2. Rearing: mice rearing on hind legs with and without the support of cage walls; • 3. Activity: regular movement of the animal including walks; • 4. Front to Back (FR) count: movement of the animal from front to back of the cage; • 5. Active Time: duration (s/min) of activeness regardless of movement; • 6. Mobile Time: duration (s/min) of mobility; • 7. Rearing Time: duration of any rearing. Results Coat Condition"}, "[1]": {"system": "Mucopolysaccharidosis Type IIIB (MPS IIIB) patient fibroblasts", "assay": "Lysosomal volume via LysoTracker, MPS IIIB fibroblasts", "format": "cell-based, human", "settings": "1 mM, 6 days"}, "[2]": {"system": "progressive supranuclear palsy patients", "assay": "Case studies, progressive supranuclear palsy patients", "format": "in vivo, human", "settings": "for Clinical observation: 5 g per day; for Symptoms after stopping medication: about two months later", "procedure": "After 27 days of acetyl-leucine treatment, medication was stopped and the patient was re-examined 60 days later. […] Gait analysis was performed before treatment commenced. […] Gait analysis was performed before treatment commenced. After 17 days of treatment, medication was stopped and the patient was re-examined 4 days later. […] Gait analysis was performed before treatment commenced. After three weeks of treatment, medication was stopped and the patient was re-examined."}, "[3]": {"system": "patients with Niemann-Pick Type C (NPC)", "settings": "Bremova et al. (2015); cited from earlier work"}}}
{"smiles": "CC(=O)NC(CC(C)C)C(=O)O", "note": "(racemic) [acetyl-DL-leucine]", "values": [{"measurement": "Coat condition", "setting": "Npc1−/− mice", "result": "smooth and glossy coat"}, {"measurement": "Motor function vs untreated littermates", "setting": "Npc1−/− and Npc1+/+ mice", "result": "significantly improved motor function"}, {"measurement": "LysoTracker fluorescence relative to untreated disease fibroblasts", "setting": "[1]", "result": "statistically significant reduction in LysoTracker fluorescence"}, {"measurement": "Symptoms after suspension of treatment", "setting": "[2]; PSP Patient 1", "result": "symptoms worsened"}, {"measurement": "Clinical observation", "setting": "[2]; PSP Patient 1, 27 days of treatment", "result": "significant reduction of dizziness and slight improvement of gait"}, {"measurement": "PSPRS Score", "setting": "[2]; PSP Patient 1, re-examined about two months later", "result": "remained stable"}, {"measurement": "Clinical observation", "setting": "[2]; PSP Patient 2, 17 days of treatment, re-examined 4 days after stopping", "result": "no significant improvement of gait or hypokinetic rigid syndrome"}, {"measurement": "Symptoms after stopping medication", "setting": "[2]; PSP Patient 2", "result": "no deterioration of symptoms"}, {"measurement": "Coefficient of variation (temporal)", "setting": "[2]; PSP Patient 2, after 17 days of treatment, before 8.5", "result": 6.6}, {"measurement": "Track width", "setting": "[2]; PSP Patient 2, after 17 days of treatment, before 10.3", "result": 9.3, "unit": "cm"}, {"measurement": "Functional Gait Assessment", "setting": "[2]; PSP Patient 2, after 17 days of treatment, before 15/30", "result": "15/30"}, {"measurement": "Double stance", "setting": "[2]; PSP Patient 2, after 17 days of treatment, before 34.5", "result": 28.6, "unit": "%"}, {"measurement": "speed", "setting": "[2]; PSP Patient 2, after 17 days of treatment, before 51", "result": 68, "unit": "cm/s"}, {"measurement": "Step cycle length", "setting": "[2]; PSP Patient 2, after 17 days of treatment, before 66", "result": 82, "unit": "cm"}, {"measurement": "cadence", "setting": "[2]; PSP Patient 2, after 17 days of treatment, before 93", "result": 99, "unit": "steps/minute"}, {"measurement": "Max. speed", "setting": "[2]; PSP Patient 2, after 17 days of treatment, before 123", "result": 98, "unit": "cm/s"}, {"measurement": "Clinical observation", "setting": "[2]; PSP Patient 3, 17 days of treatment, re-examined 4 days after stopping", "result": "no significant improvement of gait or hypokinetic rigid syndrome"}, {"measurement": "Symptoms after stopping medication", "setting": "[2]; PSP Patient 3", "result": "no deterioration of symptoms"}, {"measurement": "Coefficient of variation (temporal)", "setting": "[2]; PSP Patient 3, after 17 days of treatment, before 3.6", "result": 3.1}, {"measurement": "Track width", "setting": "[2]; PSP Patient 3, after 17 days of treatment, before 15.5", "result": 15.1, "unit": "cm"}, {"measurement": "Double stance", "setting": "[2]; PSP Patient 3, after 17 days of treatment, before 25.8", "result": 24.3, "unit": "%"}, {"measurement": "Functional Gait Assessment", "setting": "[2]; PSP Patient 3, after 17 days of treatment, before 28/30", "result": "27/30"}, {"measurement": "speed", "setting": "[2]; PSP Patient 3, after 17 days of treatment, before 103", "result": 120, "unit": "cm/s"}, {"measurement": "cadence", "setting": "[2]; PSP Patient 3, after 17 days of treatment, before 106", "result": 112, "unit": "steps/minute"}, {"measurement": "Step cycle length", "setting": "[2]; PSP Patient 3, after 17 days of treatment, before 118", "result": 129, "unit": "cm"}, {"measurement": "Max. speed", "setting": "[2]; PSP Patient 3, after 17 days of treatment, before 163", "result": 194, "unit": "cm/s"}, {"measurement": "Clinical observation", "setting": "[2]; PSP Patient 4, after three weeks of treatment", "result": "gait with increased subjective security and with reduced frequency of falls"}, {"measurement": "Functional Gait Assessment", "setting": "[2]; PSP Patient 4, after 3 weeks of treatment", "result": "14/30"}, {"measurement": "Coefficient of variation (temporal)", "setting": "[2]; PSP Patient 4, after 3 weeks of treatment, before 8.2", "result": 6.8}, {"measurement": "Track width", "setting": "[2]; PSP Patient 4, after 3 weeks of treatment, before 15.4", "result": 13.6, "unit": "cm"}, {"measurement": "speed", "setting": "[2]; PSP Patient 4, after 3 weeks of treatment, before 39", "result": 65, "unit": "cm/s"}, {"measurement": "Step cycle length", "setting": "[2]; PSP Patient 4, after 3 weeks of treatment, before 43", "result": 63, "unit": "cm"}, {"measurement": "Double stance", "setting": "[2]; PSP Patient 4, after 3 weeks of treatment, before 45.4", "result": 36, "unit": "%"}, {"measurement": "Max. speed", "setting": "[2]; PSP Patient 4, after 3 weeks of treatment, before 70", "result": 93, "unit": "cm/s"}, {"measurement": "cadence", "setting": "[2]; PSP Patient 4, after 3 weeks of treatment, before 109", "result": 125, "unit": "steps/minute"}, {"measurement": "Symptoms without medication", "setting": "[2]; PSP Patient 4, after three months without medication", "result": "progression of hypokinetic-rigid syndrome"}, {"measurement": "Ataxia in one-month study involving 12 patients", "setting": "[3]", "result": "symptomatic improvement of ataxia"}]}
